Read-outs that look alike come from different tables or passages of the source.

What all share (type): cell-based
One test has as its system IL10. Kind of test: IL10 secretion assay in human PBMCs (PHA-M, ELISA). The following applies: for EC50: read-out: Inhibitory Activity EC50, IL10. How it is done: (§1) Fetal bovine serum (FBS) was obtained from ThermoFisher (Cat #16000044). • Other reagents: 96 well TC plates were obtained from ThermoFisher (Cat #07-2000-90).
Cryopreserved PBMCs were thawed in a water bath and transferred to 50 mL polypropylene tubes. The cells were washed two times with 25 mL of RPMI medium supplemented with 5% of regular FBS and re-suspended at a density of 1.5^^6 cells/mL. The cells were plated into 96 well TC late (100 uL/well). Serially diluted compound was added to the cells in duplicate wells for each concentration. Control wells received DMSO only (0.3% final). The cells were pre-incubated with compound for 2 hr. After pre-incubation, the cells were stimulated by PHA-M (10 ug/mL) for 40 hr. Control samples with and without PHA-M in the absence of compound were assembled in each test plate. […] ELISA readout (optical density at 450 nm) is commensurable with the amount of IL10 produced by the cells. Assay window was determined in each experiment by comparing average OD450 values in stimulated and un-stimulated samples in the absence of compound. ELISA calibration was performed in each detection plate using serially diluted recombinant human IL10 standard, to ensure that OD450 values for all test samples were within linear range of detection.%-Inhibition by compound was calculated using following equation:
where OD450100% is optical density in control samples stimulated with PHA-M without compound, OD4500% is optical density in unstimulated control samples, and OD450compound is optical density in a sample stimulated with PHA-M in the presence of compound. The calculated %-Inh values were plotted against compound concentration. To determine IC50 values, dose-response curves were fitted by a 4-parameter sigmoid inhibition model using XLFit® software (IDBS).
For orientation: ELISA stands for enzyme-linked immunosorbent assay.

The subject of the next test is IFNgamma. The test can be described thus: IFNgamma secretion assay in human PBMCs (PHA-M, ELISA). The conditions noted are these: for EC50: read-out: Inhibitory Activity EC50, IFNγ. How it is done:
as §1
IFN-gamma was assessed using a standard ELISA protocol. Cryopreserved PBMCs were thawed in a water bath and transferred to 50 mL polypropylene tubes. The cells were washed two times with 25 mL of RPMI medium supplemented with 5% of regular FBS and re-suspended at a density of 1.5^^6 cells/mL. The cells were plated into 96 well TC late (100 uL/well). Serially diluted compound was added to the cells in duplicate wells for each concentration. Control wells received DMSO only (0.3% final). The cells were pre-incubated with compound for 2 hr. After pre-incubation, the cells were stimulated by PHA-M (10 ug/mL) for 40 hr. Control samples with and without PHA-M in the absence of compound were assembled in each test plate. IFNg was detected in media supernatants by using a sandwich anti-IFNg ELISA kit (BD Biosciences) according to protocol provided by the manufacturer. ELISA readout (optical density at 450 nm) is commensurable with the amount of IFNg produced by the cells. Assay window was determined in each experiment by comparing average OD450 values in stimulated and un-stimulated samples in the absence of compound. ELISA calibration was performed in each detection plate using serially diluted recombinant human IFN gamma, to ensure that OD450 values for all test samples were within linear range of detection. %-Inhibition by compound was calculated using following equation:
where OD450100% is optical density in control samples stimulated with PHA-M without compound, OD4500% is optical density in unstimulated control samples, and OD450compound is optical density in a sample stimulated with PHA-M in the presence of compound.
(§2) The calculated %-Inh values were plotted against compound concentration. To determine IC50 values, dose-response curves were fitted by a 4-parameter sigmoid inhibition model using XLFit® software (IDBS).

A further test concerns IL-1β. Kind of test: IL-1β inhibitory activity.
A further test relates to IL-6. The test can be described thus: IL-6 secretion assay in human PBMCs (LPS, ELISA). The following applies: read-out: Inhibitory Activity EC50, IL6. The method, then: (§3) Fetal bovine serum (FBS) was obtained from ThermoFisher (Cat #16000044). • Other reagents: 96 well TC plates were obtained from ThermoFisher (Cat #07-2000-90). LPS was obtained from Sigma (Cat #L3024).
(§4) IL-6 was assessed using a standard ELISA protocol. Cryopreserved PBMCs were thawed in a water bath and transferred to 50 mL polypropylene tubes. The cells were washed two times with 25 mL of RPMI medium supplemented with 5% of heat-inactivated FBS and re-suspended at a density of 4.5^^6 cells/mL. The cells were plated into 96 well TC late (100 uL/well). Serially diluted compound was added to the cells in duplicate wells for each concentration. Control wells received DMSO only (0.3% final). The cells were pre-incubated with compound for 1 hr. After pre-incubation, the cells were stimulated by LPS (100 ng/mL) for 6 hr. Control samples with and without LPS in the absence of compound were assembled in each test plate. IL-6 was detected in media supernatants by using a sandwich anti-IL-6 ELISA kit (BD Biosciences) according to protocol provided by the manufacturer. ELISA readout (optical density at 450 nm) is commensurable with the amount of IL-6 produced by the cells. Assay window was determined in each experiment by comparing average OD450 values in stimulated and un-stimulated samples in the absence of compound. ELISA calibration was performed in each detection plate using serially diluted recombinant human IL-6, to ensure that OD450 values for all test samples were within linear range of detection.%-Inhibition by compound was calculated using following equation.
(§5) where OD450100% is optical density in control samples stimulated with LPS without compound, OD4500% is optical density in unstimulated control samples, and OD450compound is optical density in a sample stimulated with LPS in the presence of compound.
as §2

For the next test, the system named is TNFa. The test can be described thus: TNFa secretion assay in human PBMCs (LPS, ELISA). The following applies: read-out: Inhibitory Activity EC50, TNF. The method, then:
as §3
as §4, with “TNF-alpha was” for “IL-6 was”, “plate. TNFa” for “plate. IL-6”, “sandwich anti-TNFa” for “sandwich anti-IL-6”, “of TNFa” for “of IL-6”, “human TNFa,” for “human IL-6,”, “following equation:” for “following equation.”
as §5, §2

Where [1] appears, read: human PBMCs, PHA-M 10 ug/mL 40 hr.
[2] abbreviates: human PBMCs, LPS 100 ng/mL 6 hr.
[3] abbreviates: PBMC, human PBMCs, PHA-M 10 ug/mL 40 hr.
The mark [4] stands for this setting: PBMC, human PBMCs, LPS 100 ng/mL 6 hr.

On to Cannabigerol Quinone [Formula VI], for which the EC50 (commonly the concentration at which the effect is half-maximal) in the test on IL10 (setting [1]) is 1.1 µM; in the test on IFNgamma (setting [1]) it was 0.91 µM; in the test with IL-1β, 5.3 µM; in the test with IL-6 (setting [2]) it was 17.9 µM; in the test on TNFa (setting [2]) it was 18.5 µM. Besides, the “stronger inhibition of IFNγ compared to Cox-2” value with IFNgamma is “over 60 fold”.
With `CCCCCc1cc(OC)c(C/C=C(\C)CCC=C(C)C)c(O)c1OC` [Formula XLII], the EC50 in the test with IL10 (setting [3]) is greater than 10 µM; in the test with IFNgamma (setting [3]) it was 4.1 µM; in the test with IL-1β, greater than 10 µM; in the test with IL-6 (setting [4]), greater than 10 µM; with TNFa (setting [4]) it was greater than 10 µM.
For `CCCCCc1cc(OC(C)=O)c(C/C=C(\C)CCC=C(C)C)c(O)c1OC(C)=O` [Formula XLIII], the “inhibitory activity on IL-10” value in the test on IL10 is on record as “particular strong inhibitory activity”. In addition, the EC50 in the test on IL10 (setting [3]) was 1.2 µM; in the test with IFNgamma (setting [3]), 1.13 µM; in the test with IL-1β it was 0.89 µM; in the test on IL-6 (setting [4]), greater than 10 µM; in the test on TNFa (setting [4]) it was 8.68 µM.
Consider `CCCCCC1=C(NC)C(=O)C(C/C=C(\C)CCC=C(C)C)=C(O)C1=O` [Formula XLI], for which the “inhibitory activity on IL-10” value in the test on IL10 was “particular strong inhibitory activity”. Moreover, the EC50 was greater than 10 µM with IL10 (setting [3]); 2.51 µM in the test on IFNgamma (setting [3]); 0.12 µM in the test on IL-1β; greater than 10 µM with IL-6 (setting [4]); greater than 10 µM with TNFa (setting [4]).
`CCCCCc1cc(O)c(C/C=C(\C)CCC=C(C)C)c(O)c1O` [Formula XXXIX]: in the test on IL10, the “inhibitory activity on IL-10” value is given as “particular strong inhibitory activity”. The EC50 with IL10 (Homo sapiens, PBMC, 40 h) was 1.69 µM; with IFNgamma (Homo sapiens, PBMC, 40 h), 1.85 µM; in the test on IL-1β it was 0.89 µM; with IL-6 (Homo sapiens, PBMC, 6 h) it was greater than 10 µM; in the test on TNFa (Homo sapiens, PBMC, 6 h) it was 6.2 µM.
